According to patent publication EP4745135A1 (Gluetacs Therapeutics (Shanghai) Co., Ltd., priority 2023, dated 2025):

How the values were obtained:
[1] = biological target: T1, human Cereblon WT GST-tagged protein (Homo sapiens, UniProt Q96SW2); assay: CRBN-binding affinity, HTRF (CEREBLON BINDING kit); conditions: for inhibition at 0.5 µM: read-out: Inhibition Rate at 0.5 µM (%); for inhibition at 2 µM: read-out: Inhibition Rate at 2 µM (%)
T1 construct: purchased CISBIO 64BDCRBNPEH

IKZF2 = biological target: T2, IKZF2 (Homo sapiens, UniProt Q96SW2+Q9UKS7); assay: Western blot, degradation of substrate protein in hPBMCs; format: cell-based
T2 construct: effects of the compounds of the present disclosure on the expression of target proteins in cells; endogenous in cells; host or cells: human PBMCs (Milecell Biotechnologies)

IKZF1 = biological target: T3, IKZF1 (Homo sapiens, UniProt Q13422+Q96SW2); assay: as above; format: cell-based
T3 construct: effects of the compounds of the present disclosure on the expression of target proteins in cells; endogenous in cells; host or cells: human PBMCs (Milecell Biotechnologies)

CK1α = biological target: T4, CK1α (Homo sapiens, UniProt P48729+Q96SW2); assay: as above; format: cell-based
T4 construct: effects of the compounds of the present disclosure on the expression of target proteins in cells; endogenous in cells; host or cells: human PBMCs (Milecell Biotechnologies)

WEE1 = biological target: T5, WEE1 (Homo sapiens, UniProt P30291+Q96SW2); assay: as above; format: cell-based
T5 construct: effects of the compounds of the present disclosure on the expression of target proteins in cells; endogenous in cells; host or cells: human PBMCs (Milecell Biotechnologies)

IKZF3 = biological target: T6, IKZF3 (Homo sapiens, UniProt Q96SW2+Q9UKT9); assay: as above; format: cell-based
T6 construct: effects of the compounds of the present disclosure on the expression of target proteins in cells; endogenous in cells; host or cells: human PBMCs (Milecell Biotechnologies)

GSPT1 = assay: as above; format: cell-based, Human
[2] = Western blot, 24 hours of compound treatment, compounds tested at 50 nM and 500 nM (concentration for the table not stated)
[3] = 24 hours treatment, compounds at 50 nM and 500 nM (concentration behind the class not stated)

T1 sequence (Q96SW2 whole entry): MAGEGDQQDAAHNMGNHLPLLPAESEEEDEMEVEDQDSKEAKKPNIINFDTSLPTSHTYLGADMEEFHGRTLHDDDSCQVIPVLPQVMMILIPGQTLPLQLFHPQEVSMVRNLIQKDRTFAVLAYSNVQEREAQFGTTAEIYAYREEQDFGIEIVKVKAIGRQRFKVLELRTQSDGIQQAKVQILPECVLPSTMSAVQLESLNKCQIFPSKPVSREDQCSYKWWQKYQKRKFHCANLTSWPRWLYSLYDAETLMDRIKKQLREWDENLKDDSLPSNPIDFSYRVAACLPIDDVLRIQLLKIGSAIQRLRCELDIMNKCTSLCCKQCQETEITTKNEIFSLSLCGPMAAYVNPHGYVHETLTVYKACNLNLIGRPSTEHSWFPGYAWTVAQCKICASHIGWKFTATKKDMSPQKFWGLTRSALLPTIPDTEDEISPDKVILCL
T3 sequence (Q13422 whole entry): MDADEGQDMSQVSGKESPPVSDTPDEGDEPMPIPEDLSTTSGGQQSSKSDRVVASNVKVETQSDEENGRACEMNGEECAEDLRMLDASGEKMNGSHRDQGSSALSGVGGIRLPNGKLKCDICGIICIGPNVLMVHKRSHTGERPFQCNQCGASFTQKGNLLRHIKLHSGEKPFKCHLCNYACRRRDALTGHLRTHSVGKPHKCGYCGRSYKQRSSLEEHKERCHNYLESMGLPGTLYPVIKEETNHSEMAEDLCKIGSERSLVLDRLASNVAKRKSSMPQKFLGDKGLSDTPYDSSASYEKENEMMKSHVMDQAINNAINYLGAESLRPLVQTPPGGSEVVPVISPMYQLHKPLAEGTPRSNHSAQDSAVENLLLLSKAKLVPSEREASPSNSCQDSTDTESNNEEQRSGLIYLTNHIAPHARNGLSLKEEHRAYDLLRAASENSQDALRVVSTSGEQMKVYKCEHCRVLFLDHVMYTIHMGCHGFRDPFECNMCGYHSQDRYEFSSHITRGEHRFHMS
T3 sequence (Q96SW2 whole entry): as the sequence (Q96SW2 whole entry) above
T3 sequence (Q16531 whole entry partner): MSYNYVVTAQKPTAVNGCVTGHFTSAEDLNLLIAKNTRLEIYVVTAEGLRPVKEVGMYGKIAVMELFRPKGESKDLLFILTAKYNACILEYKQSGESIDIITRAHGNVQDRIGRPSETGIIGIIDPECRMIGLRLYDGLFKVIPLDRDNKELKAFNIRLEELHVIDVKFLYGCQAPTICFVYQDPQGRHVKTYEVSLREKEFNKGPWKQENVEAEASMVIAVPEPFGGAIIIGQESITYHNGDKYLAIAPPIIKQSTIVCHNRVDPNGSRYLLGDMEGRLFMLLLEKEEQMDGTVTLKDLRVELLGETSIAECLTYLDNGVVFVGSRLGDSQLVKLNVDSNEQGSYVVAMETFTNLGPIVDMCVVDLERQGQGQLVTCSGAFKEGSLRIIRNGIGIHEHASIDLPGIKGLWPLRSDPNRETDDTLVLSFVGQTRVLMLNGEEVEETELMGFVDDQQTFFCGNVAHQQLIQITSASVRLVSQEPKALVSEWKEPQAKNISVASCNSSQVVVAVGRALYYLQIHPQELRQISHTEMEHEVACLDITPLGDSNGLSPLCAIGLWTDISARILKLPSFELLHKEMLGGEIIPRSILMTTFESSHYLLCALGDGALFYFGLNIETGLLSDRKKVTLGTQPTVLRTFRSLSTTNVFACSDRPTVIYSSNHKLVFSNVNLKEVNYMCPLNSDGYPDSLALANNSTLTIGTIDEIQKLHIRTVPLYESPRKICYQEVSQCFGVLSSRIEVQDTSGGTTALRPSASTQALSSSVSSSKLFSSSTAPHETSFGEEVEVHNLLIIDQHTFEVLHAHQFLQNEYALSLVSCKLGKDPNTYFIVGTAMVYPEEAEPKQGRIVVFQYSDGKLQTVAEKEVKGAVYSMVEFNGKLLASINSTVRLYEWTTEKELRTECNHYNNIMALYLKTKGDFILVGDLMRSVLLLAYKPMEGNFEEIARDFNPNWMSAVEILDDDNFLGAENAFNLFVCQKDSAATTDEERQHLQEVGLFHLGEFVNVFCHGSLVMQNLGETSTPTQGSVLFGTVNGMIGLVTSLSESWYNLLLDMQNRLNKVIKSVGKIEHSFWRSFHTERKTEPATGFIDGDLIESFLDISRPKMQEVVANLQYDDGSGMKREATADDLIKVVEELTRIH
T2 sequence (Q9UKS7 whole entry): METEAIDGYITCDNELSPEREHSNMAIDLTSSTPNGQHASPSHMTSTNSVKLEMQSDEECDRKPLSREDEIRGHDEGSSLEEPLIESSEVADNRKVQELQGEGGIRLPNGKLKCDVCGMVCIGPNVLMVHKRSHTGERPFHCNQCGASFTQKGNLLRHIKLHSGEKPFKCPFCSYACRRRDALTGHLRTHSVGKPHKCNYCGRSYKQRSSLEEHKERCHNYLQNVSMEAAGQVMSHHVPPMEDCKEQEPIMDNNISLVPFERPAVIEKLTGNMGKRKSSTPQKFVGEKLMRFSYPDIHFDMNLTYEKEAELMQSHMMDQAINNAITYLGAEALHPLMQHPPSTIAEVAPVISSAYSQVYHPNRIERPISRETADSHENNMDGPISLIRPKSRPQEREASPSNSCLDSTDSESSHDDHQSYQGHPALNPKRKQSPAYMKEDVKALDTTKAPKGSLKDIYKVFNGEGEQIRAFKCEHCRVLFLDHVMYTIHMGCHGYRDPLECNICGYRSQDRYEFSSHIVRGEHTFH
T2 sequence (Q96SW2 whole entry): as the sequence (Q96SW2 whole entry) above
T2 sequence (Q16531 whole entry partner): as the sequence (Q16531 whole entry partner) above
T4 sequence (P48729 whole entry): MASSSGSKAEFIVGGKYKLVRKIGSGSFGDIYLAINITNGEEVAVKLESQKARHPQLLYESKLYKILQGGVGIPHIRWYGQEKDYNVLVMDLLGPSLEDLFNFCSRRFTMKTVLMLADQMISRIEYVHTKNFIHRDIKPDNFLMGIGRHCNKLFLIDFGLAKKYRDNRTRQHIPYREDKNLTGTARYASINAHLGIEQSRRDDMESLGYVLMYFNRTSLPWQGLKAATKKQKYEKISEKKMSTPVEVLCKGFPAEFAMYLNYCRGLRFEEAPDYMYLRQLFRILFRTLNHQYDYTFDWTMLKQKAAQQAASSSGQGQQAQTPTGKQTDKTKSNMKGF
T4 sequence (Q96SW2 whole entry): as the sequence (Q96SW2 whole entry) above
T4 sequence (Q16531 whole entry partner): as the sequence (Q16531 whole entry partner) above
T6 sequence (Q9UKT9 whole entry): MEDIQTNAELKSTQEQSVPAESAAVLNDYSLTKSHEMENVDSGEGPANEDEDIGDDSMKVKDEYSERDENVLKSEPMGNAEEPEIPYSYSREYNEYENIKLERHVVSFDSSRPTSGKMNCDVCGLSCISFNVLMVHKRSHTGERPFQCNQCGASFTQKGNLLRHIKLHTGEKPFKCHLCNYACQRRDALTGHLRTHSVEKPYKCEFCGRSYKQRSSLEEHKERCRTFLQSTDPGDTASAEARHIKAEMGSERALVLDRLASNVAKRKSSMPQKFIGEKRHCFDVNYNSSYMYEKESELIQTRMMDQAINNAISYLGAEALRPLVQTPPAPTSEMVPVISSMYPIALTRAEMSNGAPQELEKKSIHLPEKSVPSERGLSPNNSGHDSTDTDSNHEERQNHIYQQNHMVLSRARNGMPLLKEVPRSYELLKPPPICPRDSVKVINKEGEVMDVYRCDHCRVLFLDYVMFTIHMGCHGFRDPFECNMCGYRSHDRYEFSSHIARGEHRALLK
T6 sequence (Q96SW2 whole entry): as the sequence (Q96SW2 whole entry) above
T6 sequence (Q16531 whole entry partner): as the sequence (Q16531 whole entry partner) above
T5 sequence (P30291 whole entry): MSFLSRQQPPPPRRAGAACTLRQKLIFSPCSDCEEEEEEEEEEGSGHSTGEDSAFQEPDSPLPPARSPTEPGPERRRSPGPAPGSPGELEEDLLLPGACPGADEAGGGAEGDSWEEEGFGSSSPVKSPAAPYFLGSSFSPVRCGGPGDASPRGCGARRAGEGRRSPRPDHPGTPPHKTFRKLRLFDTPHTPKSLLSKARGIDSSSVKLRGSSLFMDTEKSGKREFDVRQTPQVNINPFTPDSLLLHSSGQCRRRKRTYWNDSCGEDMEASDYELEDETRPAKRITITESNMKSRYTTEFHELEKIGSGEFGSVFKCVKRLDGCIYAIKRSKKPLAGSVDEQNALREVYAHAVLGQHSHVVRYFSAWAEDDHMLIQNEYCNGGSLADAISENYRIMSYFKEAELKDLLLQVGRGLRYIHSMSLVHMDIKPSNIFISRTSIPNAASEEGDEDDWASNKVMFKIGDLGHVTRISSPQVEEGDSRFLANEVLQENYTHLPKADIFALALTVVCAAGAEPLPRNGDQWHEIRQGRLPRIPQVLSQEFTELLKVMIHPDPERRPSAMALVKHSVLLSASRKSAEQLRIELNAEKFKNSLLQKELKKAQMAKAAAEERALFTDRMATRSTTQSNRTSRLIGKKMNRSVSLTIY
T5 sequence (Q96SW2 whole entry): as the sequence (Q96SW2 whole entry) above
T5 sequence (Q16531 whole entry partner): as the sequence (Q16531 whole entry partner) above

Row | Structure (SMILES) | inhibition at 0.5 µM [1] [%] | inhibition at 2 µM [1] [%] | IKZF2 substrate protein remaining % (IKZF2; [2]) | IKZF 1 substrate protein remaining % (IKZF1; [2]) | CK1α substrate protein remaining % (CK1α; [2]) | Wee1 substrate protein remaining % (WEE1; [2]) | IKZF3 substrate protein remaining % (IKZF3; [2]) | GSPT1 substrate protein remaining % (GSPT1; [2]) | IC50 ([1]; CRBN binding, HTRF, 3 hours at room temperature, read-out: HTRF IC50) [nM] | IKZF2 substrate protein remaining % (IKZF2; [3]) | IKZF 1 substrate protein remaining % (IKZF1; [3]) | CK1α substrate protein remaining % (CK1α; [3]) | Wee1 substrate protein remaining % (WEE1; [3]) | IKZF3 substrate protein remaining % (IKZF3; [3]) | GSPT1 substrate protein remaining % (GSPT1; [3])
1 | O=C1CCC(N2Cc3c(CN4CCN(c5cccc(C(F)(F)F)n5)CC4)cccc3C2=S)C(=O)N1 (stereo not shown) [GT-08701, 3-(1-thioxo-4-((4-(6-(trifluoromethyl)pyridin-2-yl)piperazin-1-yl)methyl)isoindolin-2-yl)piperidine-2,6-dione] | 40 to 53 | 80 to 100 | B (80%< substrate protein remaining %≤ 100%) | B (80%< substrate protein remaining %≤ 100%) | B (80%< substrate protein remaining %≤ 100%) | A (0% ≤ substrate protein remaining % ≤ 80%) | B (80%< substrate protein remaining %≤ 100%) | B (80%< substrate protein remaining %≤ 100%) |  |  |  |  |  |  | 
2 | O=C1CCC(N2Cc3c(CN4CCN(c5cccc(Cl)n5)CC4)cccc3C2=S)C(=O)N1 (stereo not shown) [GT-08693, 3-(4-((4-(6-chloropyridin-2-yl)piperazin-1-yl)methyl)-1-thioxoisoindolin-2-yl)piperidine-2,6-dione] | 60 to 80 | 80 to 100 | B (80%< substrate protein remaining %≤ 100%) | B (80%< substrate protein remaining %≤ 100%) | B (80%< substrate protein remaining %≤ 100%) | A (0% ≤ substrate protein remaining % ≤ 80%) | B (80%< substrate protein remaining %≤ 100%) | B (80%< substrate protein remaining %≤ 100%) |  |  |  |  |  |  | 
3 | O=C1CCC(N2Cc3cc(CN4CCN(C(c5ccccn5)c5ccccn5)CC4)ccc3C2=S)C(=O)N1 (stereo not shown) [GT-07734, 3-(5-((4-(di(pyridin-2-yl)methyl)piperazin-1-yl)methyl)-1-thioxoisoindolin-2-yl)piperidine-2,6-dione] | 60 to 80 | 80 to 100 | B (80%< substrate protein remaining %≤ 100%) | B (80%< substrate protein remaining %≤ 100%) | B (80%< substrate protein remaining %≤ 100%) | A (0% ≤ substrate protein remaining % ≤ 80%) | A (0% ≤ substrate protein remaining % ≤ 80%) | A (0% ≤ substrate protein remaining % ≤ 80%) |  |  |  |  |  |  | 
4 | O=C1CCC(N2Cc3cc(CN4CCC(c5noc6cc(F)ccc56)CC4)ccc3C2=S)C(=O)N1 (stereo not shown) [GT-05089, 3-(5-((4-(6-fluorobenzo[d]isoxazol-3-yl)piperidin-1-yl)methyl)-1-thioxoisoindolin-2-yl)piperidine-2,6-dione] |  |  | B (80%< substrate protein remaining %≤ 100%) | B (80%< substrate protein remaining %≤ 100%) | B (80%< substrate protein remaining %≤ 100%) | B (80%< substrate protein remaining %≤ 100%) | B (80%< substrate protein remaining %≤ 100%) | A (0% ≤ substrate protein remaining % ≤ 80%) | < 100 |  |  |  |  |  | 
5 | O=C1CCC(N2Cc3c(CN4CCN(c5ccc(F)c(F)c5)CC4)cccc3C2=S)C(=O)N1 (stereo not shown) [GT-08631, 3-(4-((4-(3,4-difluorophenyl)piperazin-1-yl)methyl)-1-thioxoisoindolin-2-yl)piperidine-2,6-dione] | 60 to 80 | 80 to 100 | B (80%< substrate protein remaining %≤ 100%) | B (80%< substrate protein remaining %≤ 100%) | B (80%< substrate protein remaining %≤ 100%) | A (0% ≤ substrate protein remaining % ≤ 80%) | B (80%< substrate protein remaining %≤ 100%) | B (80%< substrate protein remaining %≤ 100%) |  |  |  |  |  |  | 
6 | O=C1CCC(N2Cc3c(CN4CCN(c5cccnc5)CC4)cccc3C2=S)C(=O)N1 (stereo not shown) [GT-08706, 3-(4-((4-(pyridin-3-yl)piperazin-1-yl)methyl)-1-thioxoisoindolin-2-yl)piperidine-2,6-dione] | 53 to 60 | 80 to 100 | A (0% ≤ substrate protein remaining % ≤ 80%) | B (80%< substrate protein remaining %≤ 100%) | B (80%< substrate protein remaining %≤ 100%) | A (0% ≤ substrate protein remaining % ≤ 80%) | A (0% ≤ substrate protein remaining % ≤ 80%) | A (0% ≤ substrate protein remaining % ≤ 80%) |  |  |  |  |  |  | 
7 | O=C1CCC(N2Cc3cc(CN4CCC(c5ccnc6cc(F)ccc56)CC4)ccc3C2=S)C(=O)N1 (stereo not shown) [GT-09278, 3-(5-((4-(7-fluoroquinolin-4-yl)piperidin-1-yl)methyl)-1-thioxoisoindolin-2-yl)piperidine-2,6-dione] | 30 to 40 | 60 to 80 |  |  |  |  |  |  |  | B (80%< substrate protein remaining %≤ 100%) | A (0% ≤ substrate protein remaining % ≤ 80%) | B (80%< substrate protein remaining %≤ 100%) | A (0% ≤ substrate protein remaining % ≤ 80%) | A (0% ≤ substrate protein remaining % ≤ 80%) | B (80%< substrate protein remaining %≤ 100%)
8 | O=C1CCC(N2Cc3cc(CN4CCC(c5ccc(Br)cc5)CC4)ccc3C2=S)C(=O)N1 (stereo not shown) [GT-08618, 3-(5-((4-(4-bromophenyl)piperidin-1-yl)methyl)-1-thioxoisoindolin-2-yl)piperidine-2,6-dione] | 30 to 40 | 60 to 80 | B (80%< substrate protein remaining %≤ 100%) | B (80%< substrate protein remaining %≤ 100%) | B (80%< substrate protein remaining %≤ 100%) | B (80%< substrate protein remaining %≤ 100%) | B (80%< substrate protein remaining %≤ 100%) | A (0% ≤ substrate protein remaining % ≤ 80%) |  |  |  |  |  |  | 
9 | Cc1nc(N2CCN(Cc3cccc4c3CN(C3CCC(=O)NC3=O)C4=S)CC2)c2c3c(sc2n1)CCC3 (stereo not shown) [GT-08926, 3-(4-((4-(2-methyl-6,7-dihydro-5H-cyclopenta[4,5]thieno[2,3-d]pyrimidin-4-yl)piperazin-1-yl)methyl)-1-thioxoisoindolin-2-yl)piperidine-2,6-dione] | 53 to 60 | 80 to 100 |  |  |  |  |  |  |  | B (80%< substrate protein remaining %≤ 100%) | B (80%< substrate protein remaining %≤ 100%) | B (80%< substrate protein remaining %≤ 100%) | A (0% ≤ substrate protein remaining % ≤ 80%) | B (80%< substrate protein remaining %≤ 100%) | B (80%< substrate protein remaining %≤ 100%)
10 | O=C1CCC(N2Cc3c(CN4CCN(c5ccccn5)CC4)cccc3C2=S)C(=O)N1 (stereo not shown) [GT-08691, 3-(4-((4-(pyridin-2-yl)piperazin-1-yl)methyl)-1-thioxoisoindolin-2-yl)piperidine-2,6-dione] | 60 to 80 | 80 to 100 | B (80%< substrate protein remaining %≤ 100%) | B (80%< substrate protein remaining %≤ 100%) | B (80%< substrate protein remaining %≤ 100%) | A (0% ≤ substrate protein remaining % ≤ 80%) | B (80%< substrate protein remaining %≤ 100%) | B (80%< substrate protein remaining %≤ 100%) |  |  |  |  |  |  | 
